Drawing on ChEMBL document CHEMBL4270557, “Discovery of potent anti-convulsant carbonic anhydrase inhibitors: Design, synthesis, in vitro and in vivo appraisal” (Eur J Med Chem, 2018), this text covers Activity and Ratio Ki for one compound.

Data set [1] has as its system Mus musculus. Kind of data set: Anticonvulsant activity in Swiss albino mouse assessed as protection against maximal electroshock-induced seizures at 30 mg/kg, ip administered 3 hrs prior to 50 mA current induction relative to control. The format is functional.
In data set [2] the test system is Rattus norvegicus. In words: Sub-acute toxicity in Wistar rat assessed as Cl- level at 100 mg/kg, po administered daily for 14 days (reference value: 104.1 +/- 6.2 mEq/L). The format is organism-based. As to conditions: in vivo, 336 h.
The species named for the next data set is Homo sapiens. Kind of data set: Selectivity ratio of Ki for human recombinant carbonic anhydrase 1 to Ki for human recombinant carbonic anhydrase 7.
For data set [3], the system named is Rattus norvegicus. In words: Sub-acute toxicity in Wistar rat assessed as hemoglobin level at 100 mg/kg, po administered daily for 14 days (reference value: 13.1 +/- 0.9 g/dl). The note with it: in vivo, 336 h.
The test system of data set [4] is Rattus norvegicus. Kind of data set: Sub-acute toxicity in Wistar rat assessed as total bilirubin level at 100 mg/kg, po administered daily for 14 days (reference value: 0.37 +/- 0.11 mg/dl). As to conditions: in vivo, 336 h. It counts as organism-based.
Data set [5] has as its system Rattus norvegicus. In words: Sub-acute toxicity in Wistar rat assessed as RBC level at 100 mg/kg, po administered daily for 14 days (reference value: 7.9 +/- 0.56 million/mm3). The format is organism-based. The note with it: in vivo, 336 h.
Data set [6] has as its system Mus musculus. In words: Anticonvulsant activity in Swiss albino mouse assessed as protection against maximal electroshock-induced seizures at 100 mg/kg, ip administered 0.5 hrs prior to 50 mA current induction relative to control. The format is functional. On the technique in general: The maximal electroshock test induces tonic seizures with an electrical stimulus.

Data set [7] deals with Rattus norvegicus. Kind of data set: Sub-acute toxicity in Wistar rat assessed as neutrophils level at 100 mg/kg, po administered daily for 14 days (reference value: 23.4 +/- 2.9%). The note with it: in vivo, 336 h. It counts as organism-based.
Data set [8] concerns Rattus norvegicus. Kind of data set: Sub-acute toxicity in Wistar rat assessed as platelet level at 100 mg/kg, po administered daily for 14 days (reference value: 760.8 +/- 179.9 10^3/mm3). The format is organism-based. The note with it: in vivo, 336 h.
In data set [9] the test system is Rattus norvegicus. In words: Sub-acute toxicity in Wistar rat assessed as eosinophils level at 100 mg/kg, po administered daily for 14 days (reference value: 2 +/- 1.4%). The format is organism-based. As to conditions: in vivo, 336 h.
In data set [10] the test system is Rattus norvegicus. In words: Sub-acute toxicity in Wistar rat assessed as blood urea level at 100 mg/kg, po administered daily for 14 days (reference value: 40.7 +/- 3.3 mg/dl). The format is organism-based. As to conditions: in vivo, 336 h.
For data set [11], the system named is Rattus norvegicus. In words: Sub-acute toxicity in Wistar rat assessed as effect on food intake at 100 mg/kg, po administered daily for 14 days. The format is organism-based. As to conditions: in vivo, 336 h.
Data set [12] relates to Mus musculus. In words: Anticonvulsant activity in Swiss albino mouse assessed as protection against subcutaneous PTZ-induced seizures at 30 mg/kg, ip administered 0.5 hrs prior to PTZ-induction relative to control. The format is functional.
Data set [13] concerns Mus musculus. Kind of data set: Anticonvulsant activity in Swiss albino mouse assessed as protection against maximal electroshock-induced seizures at 100 mg/kg, ip administered 3 hrs prior to 50 mA current induction relative to control. The format is functional.
Data set [14] has as its system Mus musculus. In words: Anticonvulsant activity in Swiss albino mouse assessed as protection against subcutaneous PTZ-induced seizures at 100 mg/kg, ip administered 3 hrs prior to PTZ-induction relative to control. It counts as functional.
The test system of data set [15] is Mus musculus. Kind of data set: Anticonvulsant activity in Swiss albino mouse assessed as protection against subcutaneous PTZ-induced seizures at 100 mg/kg, ip administered 0.5 hrs prior to PTZ-induction relative to control. It counts as functional.

On to `Cc1ccc(N2CCN(c3ccc(/C=N/NC(=O)c4ccc(S(N)(=O)=O)cc4)cc3)CC2)c(C)c1`, for which the Activity in the data set with Mus musculus [1] is 70%; in the data set on Rattus norvegicus [2], 105.6 mEq/L; with Rattus norvegicus [3] it was 12.2 g/dL; with Rattus norvegicus [4], 0.35 mg/dL; with Rattus norvegicus [5], 7.2 million/mm3; with Mus musculus [6] it was 50%. The Activity was 23.1% with Rattus norvegicus [7]; 622.3 ×10³ /mm3 in the data set with Rattus norvegicus [8]; 2.6% in the data set on Rattus norvegicus [9]; 39.6 mg/dL in the data set with Rattus norvegicus [10]; “Non-Toxic” in the data set with Rattus norvegicus [11]; 50% with Mus musculus [12]. The figures for the Activity in the data set on Mus musculus [13], with Mus musculus [14] and with Mus musculus [15] were 50%, 83% and 50%, respectively. In addition, in the data set listed under Homo sapiens, the Ratio Ki was 561.
